A word on the IC50: it is the point on the concentration scale where inhibition reaches its midpoint. For orientation: Km means the substrate concentration at which the rate is half of its maximum.

Results on four compounds are retold here after publication PMC3819915, “Stable Suppression of Lactate Dehydrogenase Activity during Anoxia in the Foot Muscle of Littorina littorea and the Potential Role of Acetylation as a Novel Posttranslational Regulatory Mechanism” (Enzyme Research, 2013).

The test system of test [1] is T1, LDH (D-lactate specific LDH, D-LDH) from foot muscle, aerobic control.
T1 construct: native enzyme from foot muscle of aerobic control snails, partially purified on blue agarose; more acetylated than the 24 h anoxic form
Kind of test: NADH absorbance at […] nm, microplate. The format is biochemical, Littorina littorea. The conditions noted are these: assay direction not stated for this effector, presumably pyruvate-reducing (pH 6.5, 2.5 mM pyruvate, 0.25 mM NADH); 25°C; control enzyme.

Test [2] shares this test system. The test is described as follows: NADH absorbance at […] nm, microplate. The format is biochemical, Littorina littorea. The conditions noted are these: 25°C, control enzyme.

Turning to `Nc1ncnc2c1ncn2[C@@H]1O[C@H](COP(=O)(O)OP(=O)(O)O)[C@@H](O)[C@H]1O` [ADP], the IC50 in test [1] came to 23 ± 2 mM. The same measure, in the same setting: the same measure for `Nc1ncnc2c1ncn2[C@@H]1O[C@H](COP(=O)(O)OP(=O)(O)OP(=O)(O)O)[C@@H](O)[C@H]1O` [ATP]: 13 ± 1 mM.

On to `C[C@@H](O)C(=O)O` [D-lactate], for which the Km in test [2] (D-lactate-oxidizing direction, 25 mM KH2PO4 pH 9.5, 3 mM NAD+) was 25 ± 2 mM. For `CC(=O)C(=O)O` [pyruvate], in test [2] (25 mM KH2PO4 pH 6.5, 0.25 mM NADH), the Km was found to be 0.29 ± 0.01 mM.
